# Data from patent US6140335A, “Use of mizolastine for treating inflammatory diseases associated with 5-lipoxygenase” (Sanofi-Synthelabo, priority 1997, dated 2000).
# What was measured:
# [1] = biological target: T1, 5-LO obtained from a preparation of rat leukaemic basophil cells (RBL-1) (Rattus norvegicus, UniProt P12527); assay: Inhibition of 5-LO in Rats (RBL-1 preparation); assay type: biochemical; details: rat 5-LO (RBL-1); linoleic acid; 5 min preincubation, 8 min at room temperature; absorption at 234 nm; read-out: inhibitory concentration (IC50)
# T1 construct: 5-LO obtained from a preparation of rat leukaemic basophil cells (RBL-1); endogenous in cells; host or cells: RBL-1 (rat leukaemic basophil cells)
# T1 sequence (P12527 1-673): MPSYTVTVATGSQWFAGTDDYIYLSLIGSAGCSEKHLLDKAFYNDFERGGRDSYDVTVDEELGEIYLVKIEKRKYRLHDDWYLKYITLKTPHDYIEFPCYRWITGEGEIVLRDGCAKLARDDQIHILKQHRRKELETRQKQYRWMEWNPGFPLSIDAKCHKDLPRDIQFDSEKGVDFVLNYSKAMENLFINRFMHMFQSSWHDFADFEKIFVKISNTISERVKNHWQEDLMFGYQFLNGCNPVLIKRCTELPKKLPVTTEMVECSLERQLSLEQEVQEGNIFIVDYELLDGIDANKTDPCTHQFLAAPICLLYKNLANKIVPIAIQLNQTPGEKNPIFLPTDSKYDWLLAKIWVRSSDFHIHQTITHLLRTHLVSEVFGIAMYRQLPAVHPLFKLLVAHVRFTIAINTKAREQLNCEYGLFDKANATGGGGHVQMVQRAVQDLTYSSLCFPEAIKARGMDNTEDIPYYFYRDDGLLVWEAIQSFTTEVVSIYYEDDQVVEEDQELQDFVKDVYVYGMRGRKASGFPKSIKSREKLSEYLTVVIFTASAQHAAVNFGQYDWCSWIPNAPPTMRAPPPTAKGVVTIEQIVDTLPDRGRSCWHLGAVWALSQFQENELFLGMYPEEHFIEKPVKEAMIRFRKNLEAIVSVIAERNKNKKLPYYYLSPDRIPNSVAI
# Description: The tests were carried out according to the procedure described by R. W. Egan and P. H. Gale in J. Biol. Chem., 260, 1154-1159, 1985, with 5-LO obtained from a preparation of rat leukaemic basophil cells (RBL-1). Mizolastine is incubated with the enzyme for 5 minutes at room temperature and the reaction is initiated by addition of linoleic acid. After incubating for 8 minutes at room temperature, the reaction is stopped by addition of sodium hydroxide and the absorption is read at 234 nm in order to determine the level of 5-HETE.
# [2] = test system: inflammatory oedema of rat limbs induced by the injection of AA; assay: In vivo activity in a model of inflammation of rat limbs (oedema by injection of AA); details: 0.3 mg/kg orally 2 hours before AA injection; after 4 hours; plethysmography
# Description: a) inflammation by injection of AA
# Inflammatory oedema of rat limbs induced by the injection of AA is produced and evaluated according to the method of Di Martino et al. (Agents and actions, 21, 303-305, 1987) except that the AA concentration used is 0.3% (v/v).
# The mizolastine is given orally 2 hours before the injection of AA. An AA solution, prepared at the time of use in a buffer solution (0.1 ml; 0.2 M carbonate; pH=11.2), is injected into the subplantar part of a rat's right hind limb.
# The volume of the inflammatory reaction is measured by plethysmography after 1, 2, 3 and 4 hours.
# [3] = biological target: T2, 5-LO isolated from commercial HL60 cells (Homo sapiens, UniProt P09917); assay: Inhibition of 5-LO in Man (HL60 5-LO); assay type: biochemical; details: 5-LO from HL60 cells; arachidonic acid 0.4 μM; 10 min at room temperature; 5-HETE by RIA; read-out: inhibitory concentration (IC50)
# T2 construct: 5-LO isolated from commercial HL60 cells; endogenous in cells; host or cells: HL60
# T2 sequence (P09917 1-674): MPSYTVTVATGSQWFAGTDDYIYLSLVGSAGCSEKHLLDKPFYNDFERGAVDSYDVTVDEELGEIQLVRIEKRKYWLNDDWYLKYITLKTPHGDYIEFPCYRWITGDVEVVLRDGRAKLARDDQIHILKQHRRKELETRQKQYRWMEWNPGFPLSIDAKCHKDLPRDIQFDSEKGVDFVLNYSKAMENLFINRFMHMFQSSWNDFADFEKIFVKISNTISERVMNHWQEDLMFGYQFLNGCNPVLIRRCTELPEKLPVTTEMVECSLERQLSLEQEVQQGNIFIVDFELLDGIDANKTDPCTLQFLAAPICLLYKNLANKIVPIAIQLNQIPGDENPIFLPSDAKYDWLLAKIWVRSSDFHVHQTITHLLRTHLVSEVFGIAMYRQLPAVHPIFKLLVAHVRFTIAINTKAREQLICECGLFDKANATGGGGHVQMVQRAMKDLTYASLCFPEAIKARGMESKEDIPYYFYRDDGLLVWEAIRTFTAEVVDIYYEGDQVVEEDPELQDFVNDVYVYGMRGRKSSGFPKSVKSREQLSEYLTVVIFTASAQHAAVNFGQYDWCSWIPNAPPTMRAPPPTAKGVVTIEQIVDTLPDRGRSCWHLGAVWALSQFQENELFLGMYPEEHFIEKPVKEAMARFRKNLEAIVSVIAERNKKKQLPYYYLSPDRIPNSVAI
# Description: Mizolastine was tested on 5-LO isolated from commercial HL60 cells. The mizolastine is incubated for 10 minutes at room temperature in the presence of arachidonic acid (0.4 μM) and 5-LO. The experiment is carried out simultaneously in the presence of nordihydrogualaretic acid as reference product. The amount of 5-HETE formed is determined by RIA (Coffrey et al., J. Biol. Chem., 267-270, 1992).
# [4] = test system: rat rectocolitis induced by trinitrobenzenesulphonic acid (TNBS); assay: In vivo activity in a model of inflammation of experimental colitis in rats (TNBS); details: 3 mg/kg orally one hour before and one day after TNBS, after 3 days, significant
# Description: Mizolastine was studied in a model of rat rectocolitis induced by trinitrobenzenesulphonic acid (TNBS), according to the method described by Morris et al. (Gastroenterology, 96, 795-803, 1989).
# The mizolastine is given orally (3 mg/kg) one hour before and one day after the instillation of TNBS (40 mg/kg in 50% ethanol) into the distal part of the colon. After 3 days, measurement of the macroscopic index of the damage, of the oedema/hypertrophy (weight of tissues) and of the myeloperoxidase activity, as a measure of the infiltration of the neutrophils, is carried out. Mizolastine imparts a significant reduction in the damage, in the oedema/hypertrophy (weight of tissues) and in the myeloperoxidase activity of 67%, 57% and 66% respectively at 3 mg/kg.
smiles,measurement,setting,value
"CN(c1nccc(O)n1)C1CCN(c2nc3ccccc3n2Cc2ccc(F)cc2)CC1 [mizolastine, 2-[[1-[1-[(4-fluorophenyl)methyl]-1H-benzimidazol-2-yl]-4-piperidyl]methylamino]-4-pyrimidinol]",IC50,[1],4.6 µM
same,"inhibition, relative to the control, of the inflammation induced",[2],55%
same,IC50,[3],16 µM
same,reduction in the myeloperoxidase activity,[4]; infiltration of neutrophils,66%
same,reduction in the damage (macroscopic index),[4],67%
same,reduction in the oedema/hypertrophy (weight of tissues),[4],57%
